Measurements as given in patent US11382918B2, “Methods for treating Huntington's Disease” (PTC Therapeutics, Inc., priority 2017, dated 2022).
pIC50: −log10 of the molar value.

Tested on: Endogenous Huntingtin Protein (HTT)
Assay: Endogenous Huntingtin Protein Assay (ELISA-based MSD electrochemiluminescence)
Format: cell-based
Conditions: Table 1
Method in brief: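 HTT protein in lysates was measured by electrochemiluminescence on the MSD platform. Rabbit monoclonal 5656S followed by SULFO-TAG anti-rabbit antibody served for detection after overnight 4 °C capture with MAB2166 or the polyglutamine-directed MW1 antibody.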

SMILES	pIC50
Cc1cn2cc(-c3cc(=O)n4cc(C5CCNCC5)ncc4n3)ccc2n1 [compound 585, 2-(2-methylimidazo[1,2-a]pyridin-6-yl)-7-(piperidin-4-yl)-4H-pyrazino[1,2-a]pyrimidin-4-one]	6.00 to 6.30
Cn1cc2cc(-c3cc(=O)n4cc(N5CCNCC5)ncc4n3)ccc2n1 [compound 586, 2-(2-methyl-2H-indazol-5-yl)-7-(piperazin-1-yl)-4H-pyrazino[1,2-a]pyrimidin-4-one]	4.48 to 5.52
CCN1CCN(c2cn3c(=O)cc(-c4ccc5nn(C)cc5c4)nc3cn2)CC1 [compound 590, 7-(4-ethylpiperazin-1-yl)-2-(2-methyl-2H-indazol-5-yl)-4H-pyrazino[1,2-a]pyrimidin-4-one]	4.48 to 5.52
Cc1cn2cc(-c3cc(=O)n4cc(C5CCN(C)CC5)ncc4n3)cc(C)c2n1 [compound 592, 2-(2,8-dimethylimidazo[1,2-a]pyridin-6-yl)-7-(1-methylpiperidin-4-yl)-4H-pyrazino[1,2-a]pyrimidin-4-one]	4.48 to 5.52
Cc1cn2cc(-c3cc(=O)n4cc(C5CCN(CCO)CC5)ncc4n3)cc(C)c2n1 [compound 594, 2-(2,8-dimethylimidazo[1,2-a]pyridin-6-yl)-7-[1-(2-hydroxyethyl)piperidin-4-yl]-4H-pyrazino[1,2-a]pyrimidin-4-one]	5.52 to 6.00
Cc1cn2cc(-c3cc(=O)n4cc(C5CCN(CCO)CC5)ncc4n3)cc(Cl)c2n1 [compound 599, 2-(8-chloro-2-methylimidazo[1,2-a]pyridin-6-yl)-7-[1-(2-hydroxyethyl)piperidin-4-yl]-4H-pyrazino[1,2-a]pyrimidin-4-one]	5.52 to 6.00
CC(C)N1CCC(c2ccc3nc(-c4ccc5nn(C)cc5c4)cc(=O)n3c2)CC1 [compound 608, 2-(2-methyl-2H-indazol-5-yl)-7-[1-(propan-2-yl)piperidin-4-yl]-4H-pyrido[1,2-a]pyrimidin-4-one]	6.00 to 6.30
Cc1cn2nc(-c3cc(=O)n4cc(N5CCC(NCCO)CC5)cc(C)c4n3)cc2c(C)n1 [compound 609, 2-(4,6-dimethylpyrazolo[1,5-a]pyrazin-2-yl)-7-{4-[(2-hydroxyethyl)amino]piperidin-1-yl}-9-methyl-4H-pyrido[1,2-a]pyrimidin-4-one]	4.48 to 5.52
CCN1CCC(c2ccc3nc(-c4ccc5nn(C)cc5c4)cc(=O)n3c2)CC1 [compound 612, 7-(1-ethylpiperidin-4-yl)-2-(2-methyl-2H-indazol-5-yl)-4H-pyrido[1,2-a]pyrimidin-4-one]	5.52 to 6.00
Cn1cc2cc(-c3cc(=O)n4cc(C5CCN(CCO)CC5)ccc4n3)ccc2n1 [compound 613, 7-[1-(2-hydroxyethyl)piperidin-4-yl]-2-(2-methyl-2H-indazol-5-yl)-4H-pyrido[1,2-a]pyrimidin-4-one]	5.52 to 6.00
Cc1cn2nc(-c3cc(=O)n4cc(N5CCC6C(CCN6CCO)C5)ccc4n3)cc2c(C)n1 (centres unmarked) [compound 624, 2-(4,6-dimethylpyrazolo[1,5-a]pyrazin-2-yl)-7-[1-(2-hydroxyethyl)octahydro-5H-pyrrolo[3,2-c]pyridin-5-yl]-4H-pyrido[1,2-a]pyrimidin-4-one]	6.00 to 6.30
Cc1cn2cc(-c3cc(=O)n4cc(C5CCN(C(C)C)CC5)ncc4n3)ccc2n1 [compound 627, 2-(2-methylimidazo[1,2-a]pyridin-6-yl)-7-[1-(propan-2-yl)piperidin-4-yl]-4H-pyrazino[1,2-a]pyrimidin-4-one]	5.52 to 6.00
Cc1cn2cc(-c3cc(=O)n4cc(C5CCN(C6CCC6)CC5)ncc4n3)ccc2n1 [compound 628, 7-(1-cyclobutylpiperidin-4-yl)-2-(2-methylimidazo[1,2-a]pyridin-6-yl)-4H-pyrazino[1,2-a]pyrimidin-4-one]	4.48 to 5.52
CCc1nc(C)cn2nc(-c3cc(=O)n4cc(N5CCN(CCO)[C@H](C)C5)ccc4n3)cc12 [compound 632, 2-(4-ethyl-6-methylpyrazolo[1,5-a]pyrazin-2-yl)-7-[(3R)-4-(2-hydroxyethyl)-3-methylpiperazin-1-yl]-4H-pyrido[1,2-a]pyrimidin-4-one]	5.52 to 6.00
CCc1nc(C)cn2nc(-c3cc(=O)n4cc(N5C[C@@H](C)N[C@@H](C)C5)ccc4n3)cc12 [compound 633, 7-[(3R,5S)-3,5-dimethylpiperazin-1-yl]-2-(4-ethyl-6-methylpyrazolo[1,5-a]pyrazin-2-yl)-4H-pyrido[1,2-a]pyrimidin-4-one]	4.48 to 5.52
CCc1nc(C)cn2nc(-c3cc(=O)n4cc(N5CCN[C@@H](C)C5)ccc4n3)cc12 [compound 635, 2-(4-ethyl-6-methylpyrazolo[1,5-a]pyrazin-2-yl)-7-[(3S)-3-methylpiperazin-1-yl]-4H-pyrido[1,2-a]pyrimidin-4-one]	5.52 to 6.00
CCc1cc(-c2cc(=O)n3cc(N4CCNCC4)ccc3n2)cn2cc(C)nc12 [compound 637, 2-(8-ethyl-2-methylimidazo[1,2-a]pyridin-6-yl)-7-(piperazin-1-yl)-4H-pyrido[1,2-a]pyrimidin-4-one]	6.00 to 6.30

Now from value to compound:

pIC50	SMILES
4.48 to 5.52	Cc1cn2nc(-c3cc(=O)n4cc(N5CCC(C)(N)CC5)ccc4n3)cc2c(C)n1 [compound 584, 7-(4-amino-4-methylpiperidin-1-yl)-2-(4,6-dimethylpyrazolo[1,5-a]pyrazin-2-yl)-4H-pyrido[1,2-a]pyrimidin-4-one]
6.30 to 7.00	Cc1cn2cc(-c3cc(=O)n4cc(C5CCNCC5)ncc4n3)cc(Cl)c2n1 [compound 587, 2-(8-chloro-2-methylimidazo[1,2-a]pyridin-6-yl)-7-(piperidin-4-yl)-4H-pyrazino[1,2-a]pyrimidin-4-one]
6.00 to 6.30	Cc1cn2cc(-c3cc(=O)n4cc(C5CCNCC5)ncc4n3)cc(C)c2n1 [compound 588, 2-(2,8-dimethylimidazo[1,2-a]pyridin-6-yl)-7-(piperidin-4-yl)-4H-pyrazino[1,2-a]pyrimidin-4-one]
4.48 to 5.52	CN1CCN(c2cn3c(=O)cc(-c4ccc5nn(C)cc5c4)nc3cn2)CC1 [compound 589, 2-(2-methyl-2H-indazol-5-yl)-7-(4-methylpiperazin-1-yl)-4H-pyrazino[1,2-a]pyrimidin-4-one]
4.48 to 5.52	Cn1cc2cc(-c3cc(=O)n4cc(N5CCN(CCO)CC5)ncc4n3)ccc2n1 [compound 591, 7-[4-(2-hydroxyethyl)piperazin-1-yl]-2-(2-methyl-2H-indazol-5-yl)-4H-pyrazino[1,2-a]pyrimidin-4-one]
5.52 to 6.00	CCN1CCC(c2cn3c(=O)cc(-c4cc(C)c5nc(C)cn5c4)nc3cn2)CC1 [compound 593, 2-(2,8-dimethylimidazo[1,2-a]pyridin-6-yl)-7-(1-ethylpiperidin-4-yl)-4H-pyrazino[1,2-a]pyrimidin-4-one]
5.52 to 6.00	Cc1cn2cc(-c3cc(=O)n4cc(C5CCN(C(C)C)CC5)ncc4n3)cc(Cl)c2n1 [compound 595, 2-(8-chloro-2-methylimidazo[1,2-a]pyridin-6-yl)-7-[1-(propan-2-yl)piperidin-4-yl]-4H-pyrazino[1,2-a]pyrimidin-4-one]
4.48 to 5.52	Cn1cc2cc(-c3cc(=O)n4cc(C5CCNCC5)ccc4n3)ccc2n1 [compound 606, 2-(2-methyl-2H-indazol-5-yl)-7-(piperidin-4-yl)-4H-pyrido[1,2-a]pyrimidin-4-one]
4.48 to 5.52	CCc1nc(C)cn2nc(-c3cc(=O)n4cc(N5CCCN(C)CC5)ccc4n3)cc12 [compound 636, 2-(4-ethyl-6-methylpyrazolo[1,5-a]pyrazin-2-yl)-7-(4-methyl-1,4-diazepan-1-yl)-4H-pyrido[1,2-a]pyrimidin-4-one]
